# Experimental data taken from US20040110769A1, “Farnesyl protein transferase inhibitor combinations with antiestrogen agents” (priority 2003, published 2004).
# Where “and” joins values, the source holds several entries; their conditions need not be identical. Equal entries are not always repeated.
# Test system: MCF7 human breast carcinoma cells
# Assay: Anti-tumor activity in established MCF-7 human breast tumor xenografts in nude mice
# Type: in vivo
# Conditions: MCF-7 xenograft in female nude mice, individual animals showing regression
# Procedure: A combination of a farnesyl transferase inhibitor, namely the compound identified as Compound 75 above (R115777), and an anti-estrogen agent, namely tamoxifen (TMX), was tested for anti-tumor activity in comparison with the activity of the individual components of the combination, as described below.
# Female Nude-Homo NCRNU non-ovarectimized mice 8 weeks of age were fed ad libitum water and an irradiated standard rodent diet. Mice were housed in stable microisolators on a 12 hour light cycle at 21-22° C. and 40-60% humidity.
# Mice were inoculated subcutaneously with 1×10^7 MCF7 human breast carcinoma cells in the flank. Tumors were monitored initially twice a week and then daily as neoplasms reached the desired size, approximately 100 mg. When the carcinomas reached a size between 62-144 mg in calculated tumor weight, the animals were pair matched into the various treatment groups (group mean tumor weights ranged from 83-85 mg).
# Estimated tumor weight was calculated using the formula: [formula] […]
# The tumor growth inhibition (TGI) endpoint was used in this study to assess the efficacy of the various treatments. The tumor burden endpoint was set at 1.0 g as measured by calliper. TGI values were determined on the last day of the study (Day 5), when all mice were under test, except those that had expired from treatment-related or procedural causes. […]
Compound,"Regression in Individual Animals (magnitude of tumor regression expressed as % reduction from pretreatment tumor size) (R115777 100 mg/kg, orally qd to end)","Regression in Individual Animals (magnitude of tumor regression expressed as % reduction from pretreatment tumor size) (TMX 1 mg/kg, s.c.)"
"Cn1cncc1C(N)(c1ccc(Cl)cc1)c1ccc2c(c1)c(-c1cccc(Cl)c1)cc(=O)n2C (single isomer, unassigned; (+)) [Compound R115777, (+)-6-[amino(4-chlorophenyl)(1-methyl-1H-imidazol-5-yl)methyl]-4-(3-chlorophenyl)-1-methyl-2(1H)-quinolinone]",93% and 100%,
"CC/C(=C(\c1ccccc1)c1ccc(OCCN(C)C)cc1)c1ccccc1 [TMX, tamoxifen]",,10% and 78% and 94% and 44% and 59% and 31%
